For data set [1], the system named is H. pylori. The data set can be described thus: Hp gastric colonization quantified by culture. It is filed as in vivo, Helicobacter pylori. Particulars: INS-GAS mice, EtSA treatment. Here is the method: As discussed further in the Examples, the human gastric epithelial cell line AGS was infected with Hp PMSS1±10 mM EtSA. FVB/N insulin-gastrin (INS-GAS) mice and Mongolian gerbils were infected for 8 wk with Hp PMSS1 and 7.13, respectively; EtSA (0.75% in water) was given to animals beginning one wk post-infection. Lys-LG adducts, a marker of electrophile reactions, and EtSA were quantified by LC/EST/MS/MS. Histology was analyzed on H&E staining. DNA damage was evaluated by pH2AX staining. Hp colonization was quantified by culture. Mucosal immune responses were determined by RNA profiling and by Luminex assay. Mice were imaged using PET/CT with ^18F-FDG (inflammation marker) and ^18F—NaF (tumor marker).
The effect of a scavenger of levuglandins and other dicarbonyls was investigated in transgenic INS-GAS mice, which have high circulating gastrin levels and develop atrophic gastritis, and dysplasia and carcinoma with H. pylori infection. Mice were infected with H. pylori, and then EtSA was administered in drinking water, starting 7 days after infection. After 8 weeks, EtSA levels were measured in the gastric tissues of uninfected and infected mice receiving this compound (FIG. 16A). […] There was no dysplasia or carcinoma in uninfected mice (FIG. 16D).

Data set [2] relates to colonic immune response. Description: Colonic immune response in AOM-DSS mice (infiltration score, gene expression, IF). It is filed as in vivo, C57BL/6 mice. An excerpt: The present inventors used the tissues generated for FIG. 5 to study immune cell responses in AOM-DSS-treated mice±EtHOBA.
Using the tissues from the same mice as in FIG. 5, the present inventors analyzed the expression of key genes encoding mediators of the innate and adaptive immune response. […] Importantly, the overall pattern was that the genes encoding antitumoral effectors were expressed at a higher level in mice that were given compounds of the present invention. […] In contrast, the gene encoding the immunosuppressive myeloid mediator AR G1 was not affected by EtHOBA (FIG. 9). Using IF, we confirmed that mice treated with AOM-DSS mice that were given EtHOBA had increased CD68^+NOS2^+ (M1 macrophages) in colon tumors (FIG. 10).

Data set [3] concerns COX-2 activity. Description: PGE2 production in A549 cell media (GC/MS) as measure of COX-2 activity. The class given is cell-based, human. Here is the method:
(A). Scavengers were screened in RAW264.7 cells for the ability to decrease LG adduct formation on histones. Scavengers used were glucosamine (GA), 3-methoxysalicylamine (3-MoSA), pentylpyridoxamine (PPM), and 5-ethylsalicylamine (EtSA). Cells were stimulated to express COX-2, pretreated 45 min. with 500 μM scavenger or vehicle (H2O), and given 20 μM AA for 1 h before lysing and extracting histones. Histone proteins were analyzed by LC/ESI/MS/MS for LG-lysyl lactam adduct, n=2. (B) Stimulated A549 cells were pretreated with 30, 300, or 1000 μM EtSA prior to 1 h with 20 μM AA, and histones analyzed for LG-lysyl adduct. *, p<0.05 by one-way ANOVA followed by Dunnett's multiple comparisons post-test (n=3-5). (C). A549 cells were stimulated, pretreated 45 min. with 1000 μM EtSA or H2O vehicle, and given 20 μM AA for 1 h. Media was analyzed by GC/MS for PGE2 (n=3). There was no effect on PGE2 production at lower doses of EtSA (data not shown).
To stimulate COX-2 expression, A549 or RAW264.7 cells were treated overnight with 5 ng/mL IL-1B (A549) or 10 μg/mL LPS and 10 U/mL IFNγ (RAW264.7) in serum-free medium. When indicated, cells were pretreated with indomethacin, aldehyde scavengers (glucosamine, 3-MoSA, PPM or EtSA), or vehicle (ethanol for indomethacin, H2O for scavengers) for 45 min, and then given 20 μM arachidonic acid (AA) or DMSO vehicle for 1 h before lysing. […]

The test system of data set [4] is DNA-histone interaction (histone H4) in A549 cells. Description: Salt fractionation of A549 nuclei, histone H4 solubility. It is filed as cell-based, human. Particulars: A549, 500 μM EtSA 45 min prior to 20 μM AA. Here is the method: FIG. 14. LG-lysyl adduct formation on histone H4 decreases DNA-histone interaction. A549 cells were stimulated and given DMSO vehicle (C lanes) or 20 μM AA for 1 h (A lanes). A subgroup of cells was treated with 500 μM EtSA 45 min prior to adding AA (E lanes). Nuclei were extracted with 0.6, 0.9, or 1.2 M NaCl buffer, and the supernatant evaluated by Western blotting for histone H4. Shown is a representative Western blot (A) as well as the pooled results of 4 experiments (B). Different exposure times may have been used for the 0.9 M and 1.2 M bands. ***, p<0.001 by one-way ANOVA followed by Tukey's multiple comparisons post-test. NS, not significant.
60-80% confluent A549 cells were stimulated and treated with AA±500 μM EtSA before scraping cells in lysis media for nuclear isolation as above. After addition of Tritox X-100 and vortexing, 1.5 mL of each sample was aliquoted into an eppendorf and centrifuged to separate nuclei. Pellets were washed with PBS and all buffer removed. Nuclear pellets were resuspended in extraction buffer containing 0.6M, 0.9M, 1.2M or 1.5M NaCl (with 10 mM Tris, pH 7.5, 3 mM MgCl2, 0.5% NP-40, and protease inhibitor cocktail) and incubated 10 min on ice. […] This was sonicated, denatured at 95° C., and analyzed by SDS-PAGE and Western blotting, using Ponceau stain to visualize proteins and confirm equal loading, and anti-H4 antibody (Abeam, Cambridge, Mass.). […]

The values below come from US11696903B2, “Compounds and methods for scavenging dicarbonyl electrophiles” (VANDERBILT UNIVERSITY, priority 2019, dated 2023).

“Also recorded” adds a separate entry of the source.

As for `CCc1ccc(O)c(CN)c1` [EtHOBA, 5-ethyl-2-hydroxybenzylamine], the Hp colonization result in data set [1] was “not reduced; also recorded: not affected”. In data set [2] (AOM-DSS mice, EtHOBA vs untreated), the immune cell infiltration entry is recorded as “more influx of immune cells”. Further, in data set [2] (AOM-DSS ± EtHOBA), the “Arg1 (ARG1) expression” value is given as “not affected”. Also, in data set [2] (IF, AOM-DSS mice), the “CD68+NOS2+ (M1 macrophages) in colon tumors” value is “increased”. Moreover, the “histology in control mice” value in data set [2] (control mice given EtHOBA) is recorded as “no effect on histology”. In addition, in data set [2] (non-tumor and tumor tissue, AOM-DSS ± EtHOBA), the Il12a expression result is on record as “reached statistical significance for an increase”. Moreover, the Il17 expression entry in data set [2] (non-tumor tissue, AOM-DSS ± EtHOBA) was “reached statistical significance for an increase”. In addition, in data set [2] (tumor tissue, AOM-DSS ± EtHOBA), the Il12b expression result was “reached statistical significance for an increase”, the Nos2 expression entry was “reached statistical significance for an increase” and the Tnfa expression result is “reached statistical significance for an increase”. Further, the PGE2 production entry in data set [3] (A549, highest concentration tested (1000 μM EtSA)) is reported as “without affecting”. The PGE2 production result in data set [3] (A549, lower doses of EtSA (data not shown)) was “no effect”. Besides, in data set [4], the “elution of histone H4 at lower salt concentrations after AA” value was “reversed”.
